Measured values published in US6376497B1, “Antifungal azole derivatives having a fluorinated vinyl group and process for preparing same” (Korea Research Institute of Chemical Technology, priority 1999, dated 2002).
In brackets after ≈: the same amount, converted by molar mass.

What was measured:
Test in all cases: In vitro antifungal activity, microbroth dilution MIC
Format in all cases: cell-based
[1] = tested on: Aspergillus furnigatus B. 19119; settings: 4 to 48 hours; for Minimal inhibitory concentration (MIC): A furnigatus B. 19119, RPMI-1640, 35° C.; for Minimal inhibitory concentration(MIC), A furnigatus B. 19119: RPMI-1640, 35° C., no growth observed
In short: (§1)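 Broth microdilution adapted from NCCLS M27, in RPMI-1640 with 0.165 M MOPS, pH 7.0. Yeast or mould inoculum at 2×10^3 CFU/ml was mixed 1:1 with DMSO-derived compound solutions (200 to 0.10 μg/ml before mixing) and incubated at 35 °C for 4 to 48 h. MIC was the concentration showing no growth.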

[2] = tested on: Torulopsis glabrata B. 16205; settings: 4 to 48 hours; for Minimal inhibitory concentration (MIC): T. glabrata B. 16205, RPMI-1640, 35° C.; for Minimal inhibitory concentration(MIC), T. glabrata B. 16205: RPMI-1640, 35° C., no growth observed
In short: as §1

[3] = tested on: Candida albicans IFO. 1385; settings: 4 to 48 hours; for Minimal inhibitory concentration (MIC): C. albicans IFO. 1385, RPMI-1640, 35° C.; for Minimal inhibitory concentration(MIC), C. albicans IFO. 1385: RPMI-1640, 35° C., no growth observed
In short: as §1

[4] = tested on: Candida pseudotropicalis K. 11658; settings: 4 to 48 hours; for Minimal inhibitory concentration (MIC): C. pseudotropicalis K. 11658, RPMI-1640, 35° C.; for Minimal inhibitory concentration(MIC), C. pseudotropicalis K. 11658: RPMI-1640, 35° C., no growth observed
In short: as §1

Candida albicans C1-2 = settings: 4 to 48 hours; for Minimal inhibitory concentration (MIC): C. albicans C1-2, RPMI-1640, 35° C.; for Minimal inhibitory concentration(MIC), C. albicans C1-2: RPMI-1640, 35° C., no growth observed
In short: as §1

[5] = tested on: Cryptococcus neoformans IFM. 40092; settings: 4 to 48 hours; for Minimal inhibitory concentration (MIC): Cry. neoformans IFM. 40092, RPMI-1640, 35° C.; for Minimal inhibitory concentration(MIC), Cry. neoformans IFM. 40092: RPMI-1640, 35° C., no growth observed
In short: as §1

[6] = tested on: Candida albicans A. 10231; settings: 4 to 48 hours; for Minimal inhibitory concentration (MIC): C. albicans A. 10231, RPMI-1640, 35° C.; for Minimal inhibitory concentration(MIC), C. albicans A. 10231: RPMI-1640, 35° C., no growth observed
In short: as §1

[7] = tested on: Candida parapsitosis A. 7330; settings: 4 to 48 hours; for Minimal inhibitory concentration (MIC): C. parapsitosis A. 7330, RPMI-1640, 35° C.; for Minimal inhibitory concentration(MIC), C. parapsitosis A. 7330: RPMI-1640, 35° C., no growth observed
In short: as §1

Candida krusei K. 11655 = settings: 4 to 48 hours; for Minimal inhibitory concentration (MIC): C. krusei K. 11655, RPMI-1640, 35° C.; for Minimal inhibitory concentration(MIC), C. krusei K. 11655: RPMI-1640, 35° C., no growth observed
In short: as §1

[8] = tested on: Candida tropicalis A. 13803; settings: 4 to 48 hours; for Minimal inhibitory concentration (MIC): C. tropicalis A. 13803, RPMI-1640, 35° C.; for Minimal inhibitory concentration(MIC), C. tropicalis A. 13803: RPMI-1640, 35° C., no growth observed
In short: as §1

[9] = tested on: Trichophyton mentagrophytes A. 9129; settings: 4 to 48 hours; for Minimal inhibitory concentration (MIC): T. mentagrophytes A. 9129, RPMI-1640, 35° C.; for Minimal inhibitory concentration(MIC), T. mentagrophytes A. 9129: RPMI-1640, 35° C., no growth observed
In short: as §1

[10] = tested on: Aspergillus niger A. 16404; settings: 4 to 48 hours; for Minimal inhibitory concentration (MIC): A. niger A. 16404, RPMI-1640, 35° C.; for Minimal inhibitory concentration(MIC), A. niger A. 16404: RPMI-1640, 35° C., no growth observed
In short: as §1

[11] = tested on: Cryptococcus neoformans B. 42419; settings: 4 to 48 hours; for Minimal inhibitory concentration (MIC): Cry. neoformans B. 42419, RPMI-1640, 35° C.; for Minimal inhibitory concentration(MIC), Cry. neoformans B. 42419: RPMI-1640, 35° C., no growth observed
In short: as §1

[12] = tested on: Trichophyton mentagrophytes B. 32663; settings: 4 to 48 hours; for Minimal inhibitory concentration (MIC): T. mentagrophytes B. 32663, RPMI-1640, 35° C.; for Minimal inhibitory concentration(MIC), T. mentagrophytes B. 32663: RPMI-1640, 35° C., no growth observed
In short: as §1

[13] = tested on: Cryptococcus neoformans A. 34144; settings: 4 to 48 hours; for Minimal inhibitory concentration (MIC): Cry. neoformans A. 34144, RPMI-1640, 35° C.; for Minimal inhibitory concentration(MIC), Cry. neoformans A. 34144: RPMI-1640, 35° C., no growth observed
In short: as §1

Row | Structure (SMILES) | Minimal inhibitory concentration (MIC) [1] [µg/mL] | Minimal inhibitory concentration (MIC) [2] [µg/mL] | Minimal inhibitory concentration (MIC) [3] [µg/mL] | Minimal inhibitory concentration (MIC) [4] [µg/mL] | Minimal inhibitory concentration (MIC) (Candida albicans C1-2) [µg/mL] | Minimal inhibitory concentration(MIC), A furnigatus B. 19119 [1] [µg/mL] | Minimal inhibitory concentration(MIC), T. glabrata B. 16205 [2] [µg/mL] | Minimal inhibitory concentration(MIC), C. albicans IFO. 1385 [3] [µg/mL] | Minimal inhibitory concentration(MIC), C. pseudotropicalis K. 11658 [4] [µg/mL] | Minimal inhibitory concentration(MIC), C. albicans C1-2 (Candida albicans C1-2) [µg/mL] | Minimal inhibitory concentration(MIC), Cry. neoformans IFM. 40092 [5] [µg/mL] | Minimal inhibitory concentration(MIC), C. albicans A. 10231 [6] [µg/mL] | Minimal inhibitory concentration(MIC), C. parapsitosis A. 7330 [7] [µg/mL] | Minimal inhibitory concentration(MIC), C. krusei K. 11655 (Candida krusei K. 11655) [µg/mL] | Minimal inhibitory concentration(MIC), C. tropicalis A. 13803 [8] [µg/mL] | Minimal inhibitory concentration(MIC), T. mentagrophytes A. 9129 [9] [µg/mL] | Minimal inhibitory concentration(MIC), A. niger A. 16404 [10] [µg/mL] | Minimal inhibitory concentration(MIC), Cry. neoformans B. 42419 [11] [µg/mL] | Minimal inhibitory concentration(MIC), T. mentagrophytes B. 32663 [12] [µg/mL] | Minimal inhibitory concentration(MIC), Cry. neoformans A. 34144 [13] [µg/mL] | further results
1 | CCc1ccc(C(=C(F)OCC2COC(Cn3ccnc3)(c3ccc(F)cc3F)O2)C(F)(F)F)cc1 (mixture of isomers) [Ex. 55] | 100 | 6.25 | 0.78 | 50.0 | 12.5 | – | – | – | – | – | – | – | – | – | – | – | – | – | – | – | Minimal inhibitory concentration (MIC) [5]: ≦0.10 μg/ml; Minimal inhibitory concentration (MIC) [6]: 12.5 µg/mL; Minimal inhibitory concentration (MIC) [7]: >100 µg/mL; Minimal inhibitory concentration (MIC) (Candida krusei K. 11655): >100 µg/mL; Minimal inhibitory concentration (MIC) [8]: 25.0 µg/mL; Minimal inhibitory concentration (MIC) [9]: 6.25 µg/mL; Minimal inhibitory concentration (MIC) [10]: >100 µg/mL; Minimal inhibitory concentration (MIC) [11]: 0.78 µg/mL; Minimal inhibitory concentration (MIC) [12]: 3.13 µg/mL; Minimal inhibitory concentration (MIC) [13]: 0.78 µg/mL
2 | FC(Oc1ccc(OCC2COC(Cn3ccnc3)(c3ccc(Cl)cc3Cl)O2)cc1)=C(c1cccc(C(F)(F)F)c1)C(F)(F)F (mixture of isomers) [Ex. 96] | – | – | – | – | – | 100 | 100 | 3.13 | >100 | 100 | 0.39 | 100 | >100 | >100 | >100 | 12.5 | >100 | 3.13 | 6.25 | 3.13 | –
3 | FC(=Cc1ccc(F)cc1)OCC1COC(Cn2ccnc2)(c2ccc(Cl)cc2Cl)O1 (stereo not drawn) [Ex. 16] | 3.13 (≈ 6.7 µM) | 6.25 (≈ 13.4 µM) | 0.78 (≈ 1.67 µM) | 3.13 (≈ 6.7 µM) | 6.25 (≈ 13.4 µM) | – | – | – | – | – | – | – | – | – | – | – | – | – | – | – | Minimal inhibitory concentration (MIC) [5]: 0.39 µg/mL (≈ 0.835 µM); Minimal inhibitory concentration (MIC) [6]: 12.5 µg/mL (≈ 26.7 µM); Minimal inhibitory concentration (MIC) [7]: 6.25 µg/mL (≈ 13.4 µM); Minimal inhibitory concentration (MIC) (Candida krusei K. 11655): 6.25 µg/mL (≈ 13.4 µM); Minimal inhibitory concentration (MIC) [8]: 25.0 µg/mL (≈ 53.5 µM); Minimal inhibitory concentration (MIC) [9]: 1.56 µg/mL (≈ 3.34 µM); Minimal inhibitory concentration (MIC) [10]: 3.13 µg/mL (≈ 6.7 µM); Minimal inhibitory concentration (MIC) [11]: 1.56 µg/mL (≈ 3.34 µM); Minimal inhibitory concentration (MIC) [12]: 1.56 µg/mL (≈ 3.34 µM); Minimal inhibitory concentration (MIC) [13]: 1.56 µg/mL (≈ 3.34 µM)
4 | COc1cccc(C(=C(F)OCC2COC(Cn3ccnc3)(c3ccc(F)cc3F)O2)C(F)(F)F)c1 (mixture of isomers) [Ex. 60] | 12.5 | 6.25 | 0.78 | 100 | 12.5 | – | – | – | – | – | – | – | – | – | – | – | – | – | – | – | Minimal inhibitory concentration (MIC) [5]: 0.20 µg/mL; Minimal inhibitory concentration (MIC) [6]: 12.5 µg/mL; Minimal inhibitory concentration (MIC) [7]: >100 µg/mL; Minimal inhibitory concentration (MIC) (Candida krusei K. 11655): >100 µg/mL; Minimal inhibitory concentration (MIC) [8]: 100 µg/mL; Minimal inhibitory concentration (MIC) [9]: 6.25 µg/mL; Minimal inhibitory concentration (MIC) [10]: 100 µg/mL; Minimal inhibitory concentration (MIC) [11]: 1.56 µg/mL; Minimal inhibitory concentration (MIC) [12]: 3.13 µg/mL; Minimal inhibitory concentration (MIC) [13]: 1.56 µg/mL

Continued, in another order:

Row | Minimal inhibitory concentration (MIC) [1] [µg/mL] | Minimal inhibitory concentration (MIC) [2] [µg/mL] | Minimal inhibitory concentration (MIC) [3] [µg/mL] | Minimal inhibitory concentration (MIC) [4] [µg/mL] | Minimal inhibitory concentration (MIC) (Candida albicans C1-2) [µg/mL] | Minimal inhibitory concentration(MIC), A furnigatus B. 19119 [1] [µg/mL] | Minimal inhibitory concentration(MIC), T. glabrata B. 16205 [2] [µg/mL] | Minimal inhibitory concentration(MIC), C. albicans IFO. 1385 [3] [µg/mL] | Minimal inhibitory concentration(MIC), C. pseudotropicalis K. 11658 [4] [µg/mL] | Minimal inhibitory concentration(MIC), C. albicans C1-2 (Candida albicans C1-2) [µg/mL] | Minimal inhibitory concentration(MIC), Cry. neoformans IFM. 40092 [5] [µg/mL] | Minimal inhibitory concentration(MIC), C. albicans A. 10231 [6] [µg/mL] | Minimal inhibitory concentration(MIC), C. parapsitosis A. 7330 [7] [µg/mL] | Minimal inhibitory concentration(MIC), C. krusei K. 11655 (Candida krusei K. 11655) [µg/mL] | Minimal inhibitory concentration(MIC), C. tropicalis A. 13803 [8] [µg/mL] | Minimal inhibitory concentration(MIC), T. mentagrophytes A. 9129 [9] [µg/mL] | Minimal inhibitory concentration(MIC), A. niger A. 16404 [10] [µg/mL] | Minimal inhibitory concentration(MIC), Cry. neoformans B. 42419 [11] [µg/mL] | Minimal inhibitory concentration(MIC), T. mentagrophytes B. 32663 [12] [µg/mL] | Minimal inhibitory concentration(MIC), Cry. neoformans A. 34144 [13] [µg/mL] | Structure (SMILES) | further results
5 | – | – | – | – | – | >100 | 50.0 | 1.56 | >100 | 25.0 | 0.39 | 50.0 | >100 | >100 | >100 | 6.25 | >100 | 1.56 | 3.13 | 1.56 | FC(Oc1ccc(OCC2COC(Cn3ccnc3)(c3ccc(F)cc3F)O2)cc1)=C(c1cccc(Cl)c1)C(F)(F)F (mixture of isomers) [Ex. 114] | –
6 | – | – | – | – | – | >100 | 100 | 3.13 | >100 | 50.0 | 0.39 | 100 | >100 | >100 | >100 | 6.25 | >100 | 3.13 | 3.13 | 1.56 | CC(C)(C)c1ccc(C(=C(F)Oc2ccc(OCC3COC(Cn4ccnc4)(c4ccc(F)cc4F)O3)cc2)C(F)(F)F)cc1 (mixture of isomers) [Ex. 109] | –
7 | – | – | – | – | – | >100 | 100 | 3.13 | 100 | 50.0 | 0.39 | 100 | >100 | >100 | >100 | 12.5 | >100 | 3.13 | 3.13 | 1.56 | Cc1cccc(C(=C(F)Oc2ccc(OCC3COC(Cn4ccnc4)(c4ccc(F)cc4F)O3)cc2)C(F)(F)F)c1 (mixture of isomers) [Ex. 107] | –
